Experimental data as given in patent publication US20120053076A1, “METHODS FOR IDENTIFICATION” (Cambridge Enterprise Limited, priority 2009, published 2012).
Where two headings read alike, the source gives them in different places.

Assays:
THP-1 cells = assay: MCP-1 induced THP-1 cell migration, Transwell assay; assay type: cell-based, human
Procedure: Leukocyte migration was measured using the 96-well format micro Transwell® assay system from Neuroprobe (Gaithersburg, Md., USA). In principle, this assay consists of two chambers separated by a porous membrane. The chemoattractant is placed in the lower compartment and the cells are placed in the upper compartment.
The method was performed essentially as previously described (Reckless & Grainger (1999) Biochem. J. 340:803-11).
First, the cell suspension to be placed in the upper compartment was prepared. The THP-1 cells were pelleted by centrifugation (770×g; 4 mins) and washed with Geys Balanced Salt Solution with 1 mg/ml BSA (GBSS+BSA). This wash was then repeated, and the cells re-pelleted before being resuspended in a small volume of GBSS+BSA for counting, for example using a standard haemocytometer.
The volume of GBSS+BSA was then adjusted depending on the number of cells present so that the cells were at final density of 4.45×10^6 cells per ml of GBSS+BSA. This ensured that there were 100,000 THP-1 cells in each 25 μl of the solution to be placed in the upper chamber of the plate.
The suspension of THP-1 cells at 4.45×10^6 cells/ml was divided into three pots. […] To the second pot, the BSCI was added at the same concentration as in the first pot, but additionally the sstr2 antagonist was also added (for example BIM 23454 [Tulipano et al. (2002) 143:1218-24] or BIM 23627 were added at 66 nM final concentration from a stock solution in GBSS). To the third pot, GBSS+BSA plus vehicle as appropriate was added so that the volumes in three pots are equal, acting as a control.
Next, the chemoattractant solution to be placed in the lower compartment was prepared. MCP-1 was diluted in GBSS+BSA to give a final concentration of 25 ng/ml (after all additions). Note that, as recommended by Frow et al (Med. Res. Rev. 24:276-98) this is the concentration of MCP-1 which induces maximal migration in this system. This solution was divided into three pots, as for the cell suspension. To one pot, the BSCI was added to the same final concentration as was added to the cell suspension, in the second pot the BSCI and the sstr2 antagonist were both added at the same concentration as previously added to the cell suspension, while to the remaining pot GBSS+BSA plus vehicle as appropriate was added so that the volumes in the three pots were equal.
Once the chemoattractant solutions for the lower wells and cell solutions for the upper chambers were prepared, the migration chamber was assembled. 29 μl of the appropriate chemoattractant solution was placed into the lower well of the chamber. Assays were performed with at least triplicate determinations of each condition. Once all the lower chambers were filled, the porous membrane was applied to the chamber in accordance with the manufacturer's instructions. Finally, 25 μl of the appropriate cell solution was applied to each upper chamber. A plastic lid was placed over the entire apparatus to prevent evaporation.
The assembled chamber was incubated at 37° C., 5% CO2, for 2 hours.
At the end of the incubation, the liquid cell suspension was gently removed from the upper chamber, 20 μl of ice-cold 20 mM EDTA in PBS was added to the upper chamber, and the apparatus was incubated at 4° C. for 15 mins. This procedure caused any cells adhering to the underside of the membrane to fall into the lower chamber.
After this incubation the filter was carefully flushed with GBSS+BSA to wash off the EDTA, and then the filter was removed.
The number of cells migrated into the lower chamber under each condition can then be determined by a number of methods, including direct counting, labelling with fluorescent or radioactive markers or through the use of a vital dye. Typically, we utilised the vital dye MTT.

Panc-2H4 cells = assay: Human Panc-2H4 insulin suppression assay; assay type: cell-based
Source text: Two different assays for “classical” sstr2 functions were adopted: (1) cultured foetal rat pituitary cells secreted growth hormone which is inhibited by sstr2 agonists in a dose-dependent fashion and (2) selected glucose-sensitive sub-clones of the human Panc-1 cell line secrete insulin which is inhibited by sstr2 agonists in a dose-dependent fashion.
Glucose-sensitive sub-clones of the human Panc-1, a cell line derived from a pleiomorphic epithelioid carcinoma of the exocrine pancreas, were obtained essentially as described by Hamil et al. (2008) Biomed. Sci. Instrum. 44:441-6. Briefly, Panc-1 cells were subcultured in 24 well plates, and the medium was supplemented with an additional 5% glucose. […] The resulting sub-lines were then tested for glucose sensitivity by preparing wells of a 96-well plate (5×10^4 cells per well) which were then exposed to cultured medium containing a range of glucose concentrations (low glucose DMEM, DMEM, DMEM+1% glucose, DMEM+2.5% glucose and DMEM+5% glucose). After 24 hrs incubation, the conditioned medium was collected and assayed for insulin secretion by ELISA (Linco; cat# EZHI-14K) in accordance with the manufacturer's instructions.
Further 96 well plates were prepared using Panc-2H4 (5×10^4 cells per well) in DMEM. After 24 hrs, the medium was switched to DMEM+5% glucose containing various test agents at various concentrations (triplicate wells per condition). After a further 24 hrs, the conditioned medium was harvested and the concentration of insulin was determined by ELISA as described above.
Results were reported as the mean±SD, expressed as the fold change from cells in the presence of vehicle only.

[1] = test system: TNF-alpha production in response to bacterial endotoxin; assay: Sub-lethal endotoxemia model, serum TNF-alpha after LPS; assay type: in vivo; conditions: mouse, serum 2 hours after LPS
Procedure: We selected the sub-lethal endotoxemia model in mouse, because this has been well characterised in our laboratory (see for example Fox et al. (2002) J. Med. Chem. 45:360-70; Fox et al. (2005) J. Med. Chem. 48:867-74). The extent of systemic inflammation in response to a single intraperitoneal injection of bacterial lipopolysaccharide (LPS) can be estimated by measuring serum TNF-alpha 2 hours post challenge.
Methods: Mice (CD1 strain; adult males; 6 per group) were treated with BSCI (in an appropriate vehicle) or with vehicle alone by an appropriate route. […] Simultaneously, one set of mice at each BSCI concentration received BIM 23627 at […] by sub-cutaneous injection (a treatment condition known to suppress classical sstr2-mediated signalling, such as GH release, in rats; Tulipano et al. (2002) 143:1218-24). […]
After, a further 2 hours, the animals were sacrificed by CO2 asphyxiation, and blood was drawn by cardiac puncture. Serum was prepared by conventional methods, and the level of TNF-alpha in serum was measured using an ELISA (R&D Systems; Murine Quantikine code# MTA00) performed in accordance with the manufacturer's instructions. […]

| Compound | Emax (THP-1 cells; Homo sapiens, THP-1, read-out: Human chemokine-induced THP-1 migration assay Max effect) | Inhibition of MCP-1 induced THP-1 cell migration, in words (THP-1 cells; MCP-1 25 ng/ml) | EC50 (Panc-2H4 cells; Homo sapiens, Table 3, read-out: Human Panc-2H4 insulin suppression assay ED50) | Inhibition of TNF-alpha production in response to endotoxin, in words [1] | Human chemokine-induced THP-1 migration assay Max effect (THP-1 cells; Table 3) | Chemokine-induced THP-1 cell migration assay (“BSCI” target) Max Effect (THP-1 cells; Table 5) | EC50 (Panc-2H4 cells; Table 3, read-out: Human Panc-2H4 insulin suppression assay ED50) | Human Panc-2H4 insulin suppression assay Max effect (Panc-2H4 cells; Table 3, suppression compared to vehicle) | Panc-2H4 insulin suppression assay (“classical” target) Max Effect (Panc-2H4 cells; Table 5) | EC50 (Panc-2H4 cells; Table 5, read-out: Panc-2H4 insulin suppression assay (“classical” target) ED50) |
| --- | --- | --- | --- | --- | --- | --- | --- | --- | --- | --- |
| CC(C)(C)C(=O)N[C@H]1CCCNC1=O [Valerolactam, (S)-3-(2′,2′-dimethylpropionoylamino)-tetrahydropyridin-2-one] | 100% | inhibits MCP-1 induced cell migration in a dose-dependent manner | > 1000 nM | dramatically inhibited |  |  |  |  |  |  |
| (S)-3-(2′,2′-dimethyldodecanoyl)amino-caprolactam [BN83250] |  |  |  | dramatically inhibited | 100% | 100% | 1000 nM | 28% | 28% | 1000 nM |
